Measurements taken from US6358885B1, “Substituted phenylheterocyclic herbicides” (Mississippi State University, priority 1992, dated 2002).

Assays:
sorghum = test: Test C preemergence/postemergence greenhouse plant response rating 0 to 100; format: in vivo, Sorghum bicolor; settings: POSTEMERGENCE
Outline: (§1)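 Compounds in non-phytotoxic solvent went onto sandy loam before emergence (seeded one day earlier) or onto plants at the one-to-four leaf stage. Duck salad was treated via flood water (~2.5 cm, maintained) over silt loam.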

velvetleaf [1] = test: Test B preemergence/postemergence greenhouse plant response rating 0 to 10; format: in vivo, Abutilon theophrasti; settings: 0 to 10 scale
Outline: (§2)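 Test chemicals were sprayed onto freshly planted seed and, concurrently, onto young plants between the one and four leaf stage. After a twelve- to sixteen-day greenhouse period, each species was visually compared with untreated controls.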

lambsquarters [2] = test: as above; format: in vivo, Chenopodium album; settings: 0 to 10 scale
Outline: as §2

rice = test: as above; format: in vivo, Oryza sativa; settings: 0 to 10 scale
Outline: as §2

cotton = test: as above; format: in vivo, Gossypium hirsutum; settings: for Plant response rating, Cotton: 0 to 10 scale
Outline: as §2

umbrella sedge = test: Test C flood test plant response rating 0 to 100; format: in vivo, Cyperus difformis
Outline: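 Compounds in non-phytotoxic solvent applied preemergence to sandy loam one day after planting, postemergence at the 1–4 leaf stage, or to ~2.5 cm floodwater over silt loam.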

sugar beet = test: Test C preemergence/postemergence greenhouse plant response rating 0 to 100; format: in vivo, Beta vulgaris; settings: POSTEMERGENCE
Outline: as §1

morningglory = test: as above; format: in vivo, Ipomoea hederacea; settings: POSTEMERGENCE
Outline: as §1

purple nutsedge = test: Test B preemergence/postemergence greenhouse plant response rating 0 to 10; format: in vivo, Cyperus rotundus; settings: 0 to 10 scale
Outline: as §2

barley = test: Test C preemergence/postemergence greenhouse plant response rating 0 to 100; format: in vivo, Hordeum vulgare; settings: POSTEMERGENCE
Outline: as §1

soybean [3] = test: Test B preemergence/postemergence greenhouse plant response rating 0 to 10; format: in vivo, Glycine max; settings: 0 to 10 scale
Outline: as §2

lambsquarters [4] = test: Test C preemergence/postemergence greenhouse plant response rating 0 to 100; format: in vivo, Chenopodium album; settings: POSTEMERGENCE
Outline: as §1

rape = test: as above; format: in vivo, Brassica napus; settings: POSTEMERGENCE
Outline: as §1

corn = test: as above; format: in vivo, Zea mays; settings: POSTEMERGENCE
Outline: as §1

cheatgrass = test: Test B preemergence/postemergence greenhouse plant response rating 0 to 10; format: in vivo, Bromus secalinus; settings: for Plant response rating, Cheatgrass: 0 to 10 scale
Outline: as §2

wild buckwheat = test: as above; format: in vivo, Polygonum convolvulus; settings: 0 to 10 scale
Outline: as §2

soybean [5] = test: Test C preemergence/postemergence greenhouse plant response rating 0 to 100; format: in vivo, Glycine max; settings: POSTEMERGENCE
Outline: as §1

velvetleaf [6] = test: as above; format: in vivo, Abutilon theophrasti; settings: POSTEMERGENCE
Outline: as §1

SMILES: CC(C)N1C(=O)COc2cc(F)c(-c3nn4c(c3Cl)CCCC4)cc21 [Compound 31]
- Plant response rating, Sorghum (sorghum; 62 g/ha, 0 to 100 scale): 50
- Plant response rating (0 to 100), Sorghum (sorghum; Rate 1 g/ha): 20
- Plant response rating (0 to 100), Sorghum (sorghum; Rate 4 g/ha): 40
- Plant response rating (0 to 100), Sorghum (sorghum; Rate 16 g/ha): 50
- Plant response rating, Velvetleaf (velvetleaf [1]; POSTEMERGENCE, Rate 10 g/ha): 10
- Plant response rating, Velvetleaf (velvetleaf [1]; POSTEMERGENCE, Rate 50 g/ha): 10
- Plant response rating, Velvetleaf (velvetleaf [1]; PREEMERGENCE, Rate 50 g/ha): 9
- Plant response rating, Lambsquarter (lambsquarters [2]; POSTEMERGENCE, Rate 10 g/ha): 10
- Plant response rating, Lambsquarter (lambsquarters [2]; POSTEMERGENCE, Rate 50 g/ha): 10
- Plant response rating, Lambsquarter (lambsquarters [2]; PREEMERGENCE, Rate 50 g/ha): 10
- Plant response rating, Rice (rice; POSTEMERGENCE, Rate 10 g/ha): 4
- Plant response rating, Rice (rice; POSTEMERGENCE, Rate 50 g/ha): 7
- Plant response rating, Rice (rice; PREEMERGENCE, Rate 50 g/ha): 0
- Plant response rating, Cotton (cotton; POSTEMERGENCE, Rate 10 g/ha): 10
- Plant response rating (0 to 10 scale), Cotton (cotton; POSTEMERGENCE, Rate 50 g/ha): 10
- Plant response rating, Cotton (cotton; PREEMERGENCE, Rate 10 g/ha): 0
- Plant response rating, Cotton (cotton; PREEMERGENCE, Rate 50 g/ha): 0
- Plant response rating (0 to 100), Umbrella sedge (umbrella sedge; POSTEMERGENCE section, flood test, Rate 1 g/ha): 0
- Plant response rating (0 to 100), Umbrella sedge (umbrella sedge; POSTEMERGENCE section, flood test, Rate 4 g/ha): 0
- Plant response rating (0 to 100), Umbrella sedge (umbrella sedge; Rate 16 g/ha, under POSTEMERGENCE head (flood test species)): 0
- Plant response rating Umbrella sedge (umbrella sedge; flood test species listed under POSTEMERGENCE, 62 g/ha, 0 to 100 scale): 80
- Plant response rating, Sugar beet (sugar beet; 62 g/ha, 0 to 100 scale): 100
- Plant response rating (0 to 100), Sugar beet (sugar beet; Rate 1 g/ha): 60
- Plant response rating (0 to 100), Sugar beet (sugar beet; Rate 4 g/ha): 100
- Plant response rating (0 to 100), Sugar beet (sugar beet; Rate 16 g/ha): 100
- Plant response rating, Morningglory (morningglory; 62 g/ha, 0 to 100 scale): 100
- Plant response rating (0 to 100), Morningglory (morningglory; Rate 1 g/ha): 70
- Plant response rating (0 to 100), Morningglory (morningglory; Rate 4 g/ha): 100
- Plant response rating (0 to 100), Morningglory (morningglory; Rate 16 g/ha): 100
- Plant response rating, Nutsedge (purple nutsedge; POSTEMERGENCE, Rate 10 g/ha): 2
- Plant response rating, Nutsedge (purple nutsedge; POSTEMERGENCE, Rate 50 g/ha): 5
- Plant response rating, Nutsedge (purple nutsedge; PREEMERGENCE, Rate 50 g/ha): 0
- Plant response rating Barley Igri (barley; 62 g/ha, 0 to 100 scale): 50
- Plant response rating (0 to 100), Barley Igri (barley; Rate 1 g/ha): 20
- Plant response rating (0 to 100), Barley Igri (barley; Rate 4 g/ha): 30
- Plant response rating (0 to 100), Barley Igri (barley; Rate 16 g/ha): 40
- Plant response rating, Soybean (soybean [3]; POSTEMERGENCE, Rate 10 g/ha): 7
- Plant response rating, Soybean (soybean [3]; POSTEMERGENCE, Rate 50 g/ha): 7
- Plant response rating, Soybean (soybean [3]; PREEMERGENCE, Rate 50 g/ha): 0
- Plant response rating Lambsquarters (lambsquarters [4]; 62 g/ha, 0 to 100 scale): 95
- Plant response rating (0 to 100), Lambsquarters (lambsquarters [4]; Rate 1 g/ha): 40
- Plant response rating (0 to 100), Lambsquarters (lambsquarters [4]; Rate 16 g/ha): 85
- Plant response rating, Rape (rape; 62 g/ha, 0 to 100 scale): 100
- Plant response rating (0 to 100), Rape (rape; Rate 1 g/ha): 30
- Plant response rating (0 to 100), Rape (rape; Rate 4 g/ha): 60
- Plant response rating (0 to 100), Rape (rape; Rate 16 g/ha): 95
- Plant response rating, Corn (corn; 62 g/ha, 0 to 100 scale): 50
- Plant response rating (0 to 100), Corn (corn; Rate 1 g/ha): 20
- Plant response rating (0 to 100), Corn (corn; Rate 4 g/ha): 30
- Plant response rating (0 to 100), Corn (corn; Rate 16 g/ha): 40
- Plant response rating, Cheatgrass (cheatgrass; POSTEMERGENCE, Rate 10 g/ha): 5
- Plant response rating (0 to 10 scale), Cheatgrass (cheatgrass; POSTEMERGENCE, Rate 50 g/ha): 6
- Plant response rating, Cheatgrass (cheatgrass; PREEMERGENCE, Rate 10 g/ha): 2
- Plant response rating, Cheatgrass (cheatgrass; PREEMERGENCE, Rate 50 g/ha): 6
- Plant response rating, Wild buckwheat (wild buckwheat; POSTEMERGENCE, Rate 10 g/ha): 10
- Plant response rating, Wild buckwheat (wild buckwheat; POSTEMERGENCE, Rate 50 g/ha): 10
- Plant response rating, Wild buckwheat (wild buckwheat; PREEMERGENCE, Rate 50 g/ha): 10
- Plant response rating, Soybean (soybean [5]; 62 g/ha, 0 to 100 scale): 80
- Plant response rating (0 to 100), Soybean (soybean [5]; Rate 1 g/ha): 30
- Plant response rating (0 to 100), Soybean (soybean [5]; Rate 4 g/ha): 40
- Plant response rating (0 to 100), Soybean (soybean [5]; Rate 16 g/ha): 60
- Plant response rating, Velvetleaf (velvetleaf [6]; 62 g/ha, 0 to 100 scale): 100
- Plant response rating (0 to 100), Velvetleaf (velvetleaf [6]; Rate 1 g/ha): 85
- Plant response rating (0 to 100), Velvetleaf (velvetleaf [6]; Rate 4 g/ha): 95
- Plant response rating (0 to 100), Velvetleaf (velvetleaf [6]; Rate 16 g/ha): 100
